Reference: patent publication US20210221812A1, “MATRINE a-KETOAMINE COMPOUNDS, PREPARATION METHOD THEREFOR AND USE THEREOF” (SHANGHAI XINGYE PHARMACEUTICAL TECHNOLOGY CO., LTD, priority 2018, published 2021)
Read-outs that look alike come from different tables or passages of the source.

Key:
TNF-α = TNF-α activity inhibiting assay (LPS-stimulated peripheral blood, ELISA); assay type: cell-based, human; settings: compound 20 μM, LPS 10 ng/mL, 6 hours, diluted peripheral blood of healthy volunteers; for inhibition at 20 µM: Homo sapiens, read-out: TNF-α inhibition rate (%)
Procedure: Methods: Peripheral blood from healthy volunteers was collected with EDTA anticoagulant tubes. After being diluted 5-fold with 1640 medium (Gibco, USA), the blood was added to 96-well cell culture plates (Costar, USA) and then treated with 10 μL solution of the compound of general formula (I) of the present invention in DMSO (Sigma, USA), the final concentration of the compound was 20 μM with the final concentration of DMSO was 0.2%. After incubation for 60 minutes in an incubator at 37° C. under 5% CO2, 10 μL LPS (Sigma, USA) was added to the reaction system, and the final concentration was 10 ng/mL. After further culturing for 6 hours in the incubator at 37° C. under 5% CO2, the supernatant was collected. The content of TNF-α was determined by ELISA (BD Biosciences, USA). Absorbance was detected at OD450 nm with a microplate reader, with OD 650 nm as reference. The control, a solution containing 0.2% DMSO medium, was as 0% inhibition. Raw data and standard curves were recorded. The four-parameter drug inhibition curve was plotted by XL-fit software and the inhibition rate of each compound was calculated.

Panc-1 cells = assay: MTT tumor cell growth inhibition, Panc-1; assay type: cell-based; settings: 48 h, read-out: Tumors growth-inhibitory activity (IC50) Panc-1
Procedure: (§1) Using MTT method to determine the growth inhibition activity of the matrine compounds on Lovo, MGC-803, Mia-paca2, HpeG-2, A549, k562, and Panc-1 cells in vitro. Logarithmic growth phase of Lovo, MGC-803, Mia-paca2, HpeG-2, A549, k562, Panc-1 cells were inoculated into 96-well plates (purchased from Institute of Biochemical Cells, Chinese Academy of Sciences, and cultured according to conventional tumor cell culture methods) at a density of 4×10^4/mL and 180 μL/well; after the cells adhered to the wall, 20 μL of drug solution was added to each well and matined the final drug concentrations were 0.1 μM, 1 μM, 10 μM, 50 μM, 100 μM respectively. After 48 h, 5 mg/mL MTT solution was added (20 μL/well) and maintained in a CO2 incubator for 3-4 h. After that, discarding the supernatant carefully, and DMSO was added (200 μL/well) when the residual liquid was air-dried, and shook for 0.5-1 h until the residual crystals was dissolved. The absorbance OD was measured at 492 nm by a microplate reader. GraphPad Prism 5 software was used to calculate the IC50 value.

k562 cells = assay: MTT tumor cell growth inhibition, k562; assay type: cell-based; settings: 48 h, read-out: Tumors growth-inhibitory activity (IC50) k562
Procedure: as §1

Mia-paca2 cells = assay: MTT tumor cell growth inhibition, Mia-paca2; assay type: cell-based; settings: read-out: Tumors growth-inhibitory activity (IC50) Mia-paca2
Procedure: as §1

A549 cells = assay: MTT tumor cell growth inhibition, A549; assay type: cell-based; settings: 48 h, read-out: Tumors growth-inhibitory activity (IC50) A549
Procedure: as §1

HpeG-2 cells = assay: MTT tumor cell growth inhibition, HpeG-2; assay type: cell-based; settings: 48 h, read-out: Tumors growth-inhibitory activity (IC50) HpeG-2
Procedure: as §1

MGC-803 cells = assay: MTT tumor cell growth inhibition, MGC-803; assay type: cell-based; settings: 48 h, read-out: Tumors growth-inhibitory activity (IC50) MGC-803
Procedure: as §1

Lovo cells = assay: MTT tumor cell growth inhibition, Lovo; assay type: cell-based; settings: 48 h, read-out: Tumors growth-inhibitory activity (IC50) Lovo
Procedure: as §1

For `CCOc1cc(C(=O)NC2CC[C@@H]3[C@H]4CCCN5CCC[C@@H](CN3C2=O)[C@@H]45)ccc1OC` (stereo partly drawn) [GJD 54], the inhibition at 20 µM (TNF-α) was > 50%.
In the case of `CS(=O)(=O)Nc1cccc2c1C(=O)N(C1CC[C@@H]3[C@H]4CCCN5CCC[C@@H](CN3C1=O)[C@@H]45)C2=O` (stereo partly drawn) [GJD 14], the inhibition at 20 µM (TNF-α) is reported as > 50%.
For `Cc1cccc2c1C(=O)N(C1CC[C@@H]3[C@H]4CCCN5CCC[C@@H](CN3C1=O)[C@@H]45)C2=O` (stereo partly drawn) [GJD 08], the inhibition at 20 µM (TNF-α) was > 50%.
With `COc1ccc(C(=O)NC2CC[C@@H]3[C@H]4CCCN5CCC[C@@H](CN3C2=O)[C@@H]45)cc1OC1CCCC1` (stereo partly drawn) [GJD 53] the inhibition at 20 µM (TNF-α) was > 50%.
For `COc1ccc2c(c1)C(=O)N(C1CC[C@@H]3[C@H]4CCCN5CCC[C@@H](CN3C1=O)[C@@H]45)C2=O` (stereo partly drawn) [GJD 16], the IC50 (Panc-1 cells; Homo sapiens) was > 100 µM, the IC50 (k562 cells; Homo sapiens) was 50 to 100 µM and the IC50 (Mia-paca2 cells; Homo sapiens, MIA PaCa-2, 48 h) was 50 to 100 µM. The IC50 (A549 cells; Homo sapiens) was > 100 µM, the IC50 (HpeG-2 cells) was < 50 µM and the IC50 (MGC-803 cells; Homo sapiens) was 50 to 100 µM. It also gave an IC50 (Lovo cells; Homo sapiens) of 50 to 100 µM.
With `O=C1c2cccc(O)c2C(=O)N1C1CC[C@@H]2[C@H]3CCCN4CCC[C@@H](CN2C1=O)[C@@H]34` (stereo partly drawn) [GJD 10] the “TNF-α inhibition rate (%)” value (TNF-α) was ≥50%.
With `O=C1c2cccc([N+](=O)[O-])c2C(=O)N1C1CC[C@@H]2[C@H]3CCC[N+]4([O-])CCC[C@@H](CN2C1=O)[C@@H]34` (stereo partly drawn) [GJD 66] the IC50 (Panc-1 cells) was < 50 µM, the IC50 (k562 cells) was < 50 µM and the IC50 (Mia-paca2 cells; 48 h) was 50 to 100 µM. For the same compound, the “TNF-α inhibition rate (%)” value (TNF-α) was <50%, the IC50 (A549 cells) was < 50 µM and the IC50 (HpeG-2 cells) was < 50 µM. The IC50 (MGC-803 cells) was 50 to 100 µM and the IC50 (Lovo cells) was < 50 µM.
With `O=C1c2cccc(F)c2C(=O)N1C1CC[C@@H]2[C@H]3CCC[N+]4([O-])CCC[C@@H](CN2C1=O)[C@@H]34` (stereo partly drawn) [GJD 65] the “TNF-α inhibition rate (%)” value (TNF-α) was ≥50%.
With `COc1cc2c(cc1OC)C(=O)N(C1CC[C@@H]3[C@H]4CCCN5CCC[C@@H](CN3C1=O)[C@@H]45)C2=O` (stereo partly drawn) [GJD 19] the inhibition at 20 µM (TNF-α) was < 50%.
For `COc1cccc2c1C(=O)N(C1CC[C@@H]3[C@H]4CCCN5CCC[C@@H](CN3C1=O)[C@@H]45)C2=O` (stereo partly drawn) [GJD 09], the inhibition at 20 µM (TNF-α) was > 50%.
`O=C1CCC[C@@H]2[C@H]3CCC[N+]4([O-])CCC[C@@H](CN12)[C@@H]34` (stereo partly drawn) [Oxymatrine, oxymatrine, reference compound] was tested, and the inhibition at 20 µM (TNF-α) was < 50%.
`CC(C)Nc1cccc2c1C(=O)N(C1CC[C@@H]3[C@H]4CCCN5CCC[C@@H](CN3C1=O)[C@@H]45)C2=O` (stereo partly drawn) [GJD 12] was tested, and the inhibition at 20 µM (TNF-α) was > 50%.
For `CC(=O)Nc1cccc2c1C(=O)N(C1CC[C@@H]3[C@H]4CCCN5CCC[C@@H](CN3C1=O)[C@@H]45)C2=O` (stereo partly drawn) [GJD 13], the inhibition at 20 µM (TNF-α) was > 50%.
In the case of `O=C(NC1CC[C@@H]2[C@H]3CCCN4CCC[C@@H](CN2C1=O)[C@@H]34)c1ccccc1O` (stereo partly drawn) [GJD 50], the inhibition at 20 µM (TNF-α) is reported as > 50%.
For `Nc1cccc2c1C(=O)N(C1CC[C@@H]3[C@H]4CCCN5CCC[C@H](CN3C1=O)[C@@H]45)C2=O` (stereo partly drawn) [GJD 27], the inhibition at 20 µM (TNF-α) was > 50%.
`O=C1CCC[C@@H]2[C@H]3CCCN4CCC[C@H](CN12)[C@@H]34` [Sophoridine, sophoridine, reference compound] was tested, and the inhibition at 20 µM (TNF-α) was < 50%.
`O=C1c2ccccc2CN1C1CC[C@@H]2[C@H]3CCCN4CCC[C@@H](CN2C1=O)[C@@H]34` (stereo partly drawn) [GJD 30] was tested, and the inhibition at 20 µM (TNF-α) was < 50%.
In the case of `O=C1CCC[C@@H]2[C@H]3CCCN4CCC[C@@H](CN12)[C@@H]34` [Matrine, matrine], the IC50 (Panc-1 cells; Homo sapiens) is reported as > 100 µM, the IC50 (k562 cells; Homo sapiens) is reported as > 100 µM and the IC50 (Mia-paca2 cells; Homo sapiens, MIA PaCa-2, 48 h) is reported as > 100 µM. For the same compound, the inhibition at 20 µM (TNF-α) was < 50%, the IC50 (A549 cells; Homo sapiens) was > 100 µM and the IC50 (HpeG-2 cells) was 50 to 100 µM. The IC50 (MGC-803 cells; Homo sapiens) was > 100 µM and the IC50 (Lovo cells; Homo sapiens) was 50 to 100 µM.
In the case of `NC1CC[C@@H]2[C@H]3CCCN4CCC[C@@H](CN2C1=O)[C@@H]34` (stereo partly drawn) [Compound M-3, 14-amino-matrine], the IC50 (Panc-1 cells; Homo sapiens) is reported as > 100 µM, the IC50 (k562 cells; Homo sapiens) is reported as 50 to 100 µM and the IC50 (Mia-paca2 cells; Homo sapiens, MIA PaCa-2, 48 h) is reported as > 100 µM. For the same compound, the IC50 (A549 cells; Homo sapiens) was 50 to 100 µM, the IC50 (HpeG-2 cells) was 50 to 100 µM and the IC50 (MGC-803 cells; Homo sapiens) was > 100 µM. The IC50 (Lovo cells; Homo sapiens) was 50 to 100 µM.
